Like-named read-outs stand apart in the source and are kept apart here.
Key:
murine lymphoma L1210 [1] = test system: murine lymphoma L1210
Method: Preparation of L1210 Cells: L1210 ascitic cells were prepared by passaging them in mice at least three times as follows. Each CD2F1 female mouse was intraperitoneally (IP) injected with about 10^5 L1210 ascitic cells. After one week, the mouse was sacrificed (asphyxiation via CO2). The mouse was placed on its back, its belly surface was cleaned with alcohol wipes, and a small incision was made into the peritoneal cavity. […] Diluted ascites (diluted 1:10 again) were counted on a hematocytometer and the number of cells per mL was calculated. About 10^5 L1210 cells were used for a subsequent passage for another mouse passage. Or, a stock of L1210 ascites in BSA solution was diluted to 1×10^4 cells/0.1 ml for use in the study mice.
(§1) The mice were prepared with intravenous (IV) injection of L1210 ascites (prepared as described above) one day prior to commencing the dosing. […] The total IV injection for all mice took about 50 minutes.
Decitabine was prepared fresh twice a day, just prior to dosing. All solutions were stored on ice while dosing. Mice were dosed (intraperitoneally (IP) or per os (orally, PO)) twice a day (8 hours apart) for 4 consecutive days.
(§2) Dead mice were autopsied and observed for the presence of tumors in organs.
Preparation of study mice with IV injection of L1210 ascites took about 60 minutes. […] All solutions were stored on ice while dosing. Mice were dosed (IP or PO) twice a day (7 or 8 hours apart) for 4 consecutive days.

murine lymphoma L1210 [2] = settings: ER-876437 10 mg/kg/Veh
Method: Or, a stock of L1210 ascites in BSA solution was diluted to 1×10^4 cells/0.1 ml for use in the study mice.
as §1
All solutions were stored on ice while dosing. Mice were dosed (intraperitoneally (IP) or per os (orally, PO)) twice a day (8 hours apart) for 4 consecutive days.
as §2

cytidine deaminase (CDA) = cytidine deaminase (CDA) (Homo sapiens (Human), UniProt P32320); experiment: Effect of ER-876437 on the half-life of gemcitabine in the presence of CDA in Tris-HCl buffer at 37° C.; type: biochemical
Method: This Example employed a Phenomenex Luna C18(2) HPLC column (100 Å 4.6×250 mm 5 μm). The solvent delivery system employed an HPLC quaternary pump, low pressure mixing. An autosampler having a variable loop, 0.1 to 100 μL range and temperature controlled thermostat was used. The UV detector can employ a dual wavelength detector, a diode array detector, a variable wavelength detector or equivalent, and can be recorded using chromatographic software (e.g., Waters Empower 2 Build 2154, Agilent ChemStation software version A.09.03 or higher for HPLC or equivalent). The analytical balance employed was capable of weighing ±0.1 mg. Degassed HPLC grade water and degassed HPLC grade acetonitrile were used as solvents for the mobile phases.
Gemcitabine Standard Control: 0.2 mM gemcitabine control was prepared by weighing […] of gemcitabine in a 10 mL volumetric flask. […] Solution was labeled as gemcitabine stock solution.

[3] = test system: A2780 human ovarian cancer xenograft; experiment: In vivo efficacy study in A2780 human ovarian cancer xenograft model; parameters: species or system female nude mice; settings: qdx5 for two weeks
Method: Animals were dosed daily from Monday to Friday for two weeks.
Female nude mice (NU/NU, strain code 088, 6 weeks old, Charles River Laboratory) were implanted subcutaneously with 5×10^6 A2780 cancer cells per mouse. On day 13 when the tumors were approximately 150 mm^3, treatment started as described in Table 9.
Tumor volume and regressions were followed over time. Tumor volume was calculated by (length×width^2)/2. Note that a complete regression was defined as no measurable tumor for at least 3 consecutive measurements; while a partial regression was defined as tumor shrinkage to equal or less than 50% of original tumor volume for 3 consecutive measurements. Tumor growth delay (TGD) was defined as the median number of days for the control and treatment groups to grow to 342.14 mm^3. The average tumor volume on the first day of treatment (day 13) is 171.07 mm^3.

[4] = ER-876437 1.0 mg/kg/Veh, on autopsy

Sequence of cytidine deaminase (CDA) (P32320 whole entry): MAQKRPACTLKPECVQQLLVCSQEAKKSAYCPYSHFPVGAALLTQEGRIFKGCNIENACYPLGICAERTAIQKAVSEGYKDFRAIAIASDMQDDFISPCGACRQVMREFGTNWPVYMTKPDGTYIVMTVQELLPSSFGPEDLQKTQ

For `O=C1NCC=CCN1[C@@H]1O[C@H](CO)[C@@H](O)C1(F)F` [ER-876437, 1-((2R,4R,5R)-3,3-difluoro-4-hydroxy-5-(hydroxymethyl)tetrahydrofuran-2-yl)-3,4-dihydro-1H-1,3-diazepin-2(7H)-one], the “Mean Liver wts (g) ± SD” value (murine lymphoma L1210 [1]; [4]) was 2.04 ± 0.15 g, the “Mean Spleen wts (g) ± SD” value (murine lymphoma L1210 [1]; [4]) was 0.32 ± 0.02 g and the “Mean Survival (days) ± SD” value (murine lymphoma L1210 [1]; ER-876437 1.0 mg/kg/Veh, twice a day (7 hours apart), 4 days) was 8.4 ± 0.55 days. The “% ILS (Increased Life Span)” value (murine lymphoma L1210 [1]; ER-876437 1.0 mg/kg/Veh, vs vehicle group) was 5.00%, the minimally effective dose (murine lymphoma L1210 [1]; with 0.1 mg/kg decitabine PO, L1210 survival model) was 0.1 mg/kg and the “Mean Liver wts (g) ± SD” value (murine lymphoma L1210 [2]; on autopsy) was 2.02 ± 0.07 g. For the same molecule, the “Mean Spleen wts (g) ± SD” value (murine lymphoma L1210 [2]; on autopsy) was 0.37 ± 0.04 g, the “Mean Survival (days) ± SD” value (murine lymphoma L1210 [2]; twice a day (8 hours apart), 4 days) was 7.6 ± 0.89 days and the “% ILS (Increased Life Span)” value (murine lymphoma L1210 [2]; vs vehicle group) was 2.70%. For the same molecule, the gemcitabine remaining (cytidine deaminase (CDA); CDA plus ER-876437 in the incubation mixture, after 7 h) was “greater than 95%”, the “inhibition of the effect of CDA on T1/2 of gemcitabine” value (cytidine deaminase (CDA); Tris-HCl buffer at 37° C.) was “nearly completely inhibited” and the “levels of ER-876437” value (cytidine deaminase (CDA); after 7 hours of exposure to CDA with gemcitabine) was “not affected”. The “regressions or tumor free survivors at day 41” value ([3]; gemcitabine 1 mg/kg PO alone or ER-876437 10 mg/kg PO alone) was “no regressions or tumor free survivors”, the “effect on tumor growth (FIG. 3)” value ([3]; gemcitabine 1 mg/kg PO and/or ER-876437 10 mg/kg PO (30 minutes prior)) was “no effect at all” and the “TGD (tumor growth delay)” value ([3]; gemcitabine 1 mg/kg PO and/or ER-876437 10 mg/kg PO (30 minutes prior), delay vs vehicle to reach 342.14 mm^3) was 2 days.

Source: patent publication US9040501B2, “Compositions and methods for treating cancer” (Eisai Inc., priority 2009, dated 2015)
